Data: patent US11207310B2 (PRILENIA NEUROTHERAPEUTICS LTD., priority 2016, dated 2021)
Read-outs that look alike come from different tables or passages of the source.

Test system: patients with HD
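Further: UHDRS Total Functional Capacity items for finances and ADL, each scored 0 to 3, where 3 means normal function and 0 means unable (finances) or total care (ADL).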

Which results are given for `CCCN1CCC(c2cccc(S(C)(=O)=O)c2)CC1` [pridopidine, 4-[3-(methylsulfonyl)phenyl]-1-propyl-piperidine]?
UHDRS TFC Finance ADL, change from baseline, Δ to placebo (45 mg bid, Week 26, BL TFC<7, p value 0.3239): −0.34; UHDRS TFC Finance ADL, change from baseline, Δ to placebo (45 mg bid, Week 26, BL TFC≥7, p value 0.0114): 0.46; Change from baseline in UHDRS TFC Finance ADL, Δ to placebo (45 mg bid, Week 26, Stage 1 BL TFC 11-13): 0.92; Change from baseline in UHDRS TFC Finance ADL, Δ to placebo (45 mg bid, Week 26, Stage 2 BL TFC 7-10 (FIG. 11c)): 0.33; Change from baseline in UHDRS TFC Finance ADL, Δ to placebo (45 mg bid, Week 26, Stage 2 BL TFC 7-10 (FIG. 11f)): 0.7; Change from baseline in UHDRS TFC Finance ADL, Δ to placebo (45 mg bid, Week 52, ALL): 0.46; UHDRS TFC Finance ADL, change from baseline, Δ to placebo (45 mg bid, Week 52, BL TFC<7, p value 0.9863): 0.01; UHDRS TFC Finance ADL, change from baseline, Δ to placebo (45 mg bid, Week 52, BL TFC≥7, p value 0.0004): 0.72; Change from baseline in UHDRS TFC Finance ADL, Δ to placebo (45 mg bid, Week 52, Stage 1 BL TFC 11-13): 0.77; Δ to placebo: UHDRS TFC Finance and ADL score, change from baseline (67.5 mg bid, BL CAG Repeat >44, week 26): 0.21; Δ to placebo: UHDRS TFC Finance and ADL score, change from baseline (67.5 mg bid, BL TFC≥9, week 26): 0.23; Δ to placebo: UHDRS TFC Finance and ADL score, change from baseline (67.5 mg bid, BL TFC≥9 and BL TMS 1st 3 Qs, week 26): 0.18; Δ to placebo: UHDRS TFC Finance and ADL score, change from baseline (67.5 mg bid, BL TFC≥9 and CAG Repeat >44, week 26): 0.57; Δ to placebo: UHDRS TFC Finance and ADL score, change from baseline (67.5 mg bid, BL TFC≥9 and CAG Repeats <44 and BL TMS 1st 3 Qs, week 26): 0.57; Δ to placebo: UHDRS TFC Finance and ADL score, change from baseline (67.5 mg bid, BL TFC≥9 or CAG Repeat >44, week 26): 0.08; Δ to placebo: UHDRS TFC Finance and ADL score, change from baseline (67.5 mg bid, CAG Repeats <44 and BL TMS 1st 3 Qs, week 26): 0.18; Δ to placebo: UHDRS TFC Finance and ADL score, change from baseline (67.5 mg bid, TMS 1st 2Qs, week 26): 0.1; Δ to placebo: UHDRS TFC Finance and ADL score, change from baseline (67.5 mg bid, TMS 1st 2Qs, week 52): 0.25; Δ to placebo: UHDRS TFC Finance and ADL score, change from baseline (67.5 mg bid, TMS 1st 3Qs, week 26): 0.04; Δ to placebo: UHDRS TFC Finance and ADL score, change from baseline (67.5 mg bid, TMS 1st 3Qs, week 52): −0.03; Δ to placebo: UHDRS TFC Finance and ADL score, change from baseline (67.5 mg bid, TMS 1st Q, week 26): 0.5; Δ to placebo: UHDRS TFC Finance and ADL score, change from baseline (67.5 mg bid, TMS 1st Q, week 52): 0.61; Change from baseline in UHDRS TFC Finance ADL, Δ to placebo (67.5 mg bid, Week 26, ALL): 0.16; UHDRS TFC Finance ADL, change from baseline, Δ to placebo (67.5 mg bid, Week 26, BL TFC<7, p value 0.8408): −0.06; UHDRS TFC Finance ADL, change from baseline, Δ to placebo (67.5 mg bid, Week 26, BL TFC≥7, p value 0.0817): 0.32; Change from baseline in UHDRS TFC Finance ADL, Δ to placebo (67.5 mg bid, Week 26, Stage 1 BL TFC 11-13): 0.65; Change from baseline in UHDRS TFC Finance ADL, Δ to placebo (67.5 mg bid, Week 26, Stage 2 BL TFC 7-10 (FIG. 11c)): 0.26; Change from baseline in UHDRS TFC Finance ADL, Δ to placebo (67.5 mg bid, Week 26, Stage 2 BL TFC 7-10 (FIG. 11f)): 0.54; Change from baseline in UHDRS TFC Finance ADL, Δ to placebo (67.5 mg bid, Week 52, ALL): 0.1; UHDRS TFC Finance ADL, change from baseline, Δ to placebo (67.5 mg bid, Week 52, BL TFC<7, p value 0.497): −0.25; UHDRS TFC Finance ADL, change from baseline, Δ to placebo (67.5 mg bid, Week 52, BL TFC≥7, p value 0.1926): 0.27; Change from baseline in UHDRS TFC Finance ADL, Δ to placebo (67.5 mg bid, Week 52, Stage 1 BL TFC 11-13): −0.18; Δ to placebo: UHDRS TFC Finance and ADL score, change from baseline (90 mg bid, BL CAG Repeat >44, week 26): 0.67; Δ to placebo: UHDRS TFC Finance and ADL score, change from baseline (90 mg bid, BL TFC≥9, week 26): 0.51; Δ to placebo: UHDRS TFC Finance and ADL score, change from baseline (90 mg bid, BL TFC≥9 and BL TMS 1st 3 Qs, week 26): 0.45; Δ to placebo: UHDRS TFC Finance and ADL score, change from baseline (90 mg bid, BL TFC≥9 and CAG Repeat >44, week 26): 0.83; Δ to placebo: UHDRS TFC Finance and ADL score, change from baseline (90 mg bid, BL TFC≥9 and CAG Repeats <44 and BL TMS 1st 3 Qs, week 26): 0.81; Δ to placebo: UHDRS TFC Finance and ADL score, change from baseline (90 mg bid, BL TFC≥9 or CAG Repeat >44, week 26): 0.52; Δ to placebo: UHDRS TFC Finance and ADL score, change from baseline (90 mg bid, CAG Repeats <44 and BL TMS 1st 3 Qs, week 26): 0.6; Δ to placebo: UHDRS TFC Finance and ADL score, change from baseline (90 mg bid, TMS 1st 2Qs, week 26): 0.26; Δ to placebo: UHDRS TFC Finance and ADL score, change from baseline (90 mg bid, TMS 1st 2Qs, week 52): 0.47; Δ to placebo: UHDRS TFC Finance and ADL score, change from baseline (90 mg bid, TMS 1st 3Qs, week 26): 0.35; Δ to placebo: UHDRS TFC Finance and ADL score, change from baseline (90 mg bid, TMS 1st 3Qs, week 52): 0.21; Δ to placebo: UHDRS TFC Finance and ADL score, change from baseline (90 mg bid, TMS 1st Q, week 26): 0.63; Δ to placebo: UHDRS TFC Finance and ADL score, change from baseline (90 mg bid, TMS 1st Q, week 52): 0.57; Change from baseline in UHDRS TFC Finance ADL, Δ to placebo (90 mg bid, Week 26, ALL): 0.31; UHDRS TFC Finance ADL, change from baseline, Δ to placebo (90 mg bid, Week 26, BL TFC<7, p value 0.3747): 0.28; UHDRS TFC Finance ADL, change from baseline, Δ to placebo (90 mg bid, Week 26, BL TFC≥7, p value 0.0093): 0.47; Change from baseline in UHDRS TFC Finance ADL, Δ to placebo (90 mg bid, Week 26, Stage 1 BL TFC 11-13): 0.97; Change from baseline in UHDRS TFC Finance ADL, Δ to placebo (90 mg bid, Week 26, Stage 2 BL TFC 7-10 (FIG. 11c)): 0.3; Change from baseline in UHDRS TFC Finance ADL, Δ to placebo (90 mg bid, Week 26, Stage 2 BL TFC 7-10 (FIG. 11f)): 0.56; Change from baseline in UHDRS TFC Finance ADL, Δ to placebo (90 mg bid, Week 52, ALL): 0.17; UHDRS TFC Finance ADL, change from baseline, Δ to placebo (90 mg bid, Week 52, BL TFC<7, p value 0.4368): −0.29; UHDRS TFC Finance ADL, change from baseline, Δ to placebo (90 mg bid, Week 52, BL TFC≥7, p value 0.0088): 0.53; Change from baseline in UHDRS TFC Finance ADL, Δ to placebo (90 mg bid, Week 52, Stage 1 BL TFC 11-13): 0.4; Δ to placebo: UHDRS TFC Finance and ADL score, change from baseline (112.5 mg bid, BL CAG Repeat >44, week 26): 0.47; Δ to placebo: UHDRS TFC Finance and ADL score, change from baseline (112.5 mg bid, BL TFC≥9, week 26): 0.57; Δ to placebo: UHDRS TFC Finance and ADL score, change from baseline (112.5 mg bid, BL TFC≥9 and BL TMS 1st 3 Qs, week 26): 0.54; Δ to placebo: UHDRS TFC Finance and ADL score, change from baseline (112.5 mg bid, BL TFC≥9 and CAG Repeat >44, week 26): 1.02; Δ to placebo: UHDRS TFC Finance and ADL score, change from baseline (112.5 mg bid, BL TFC≥9 and CAG Repeats <44 and BL TMS 1st 3 Qs, week 26): 1.08; Δ to placebo: UHDRS TFC Finance and ADL score, change from baseline (112.5 mg bid, BL TFC≥9 or CAG Repeat >44, week 26): 0.4; Δ to placebo: UHDRS TFC Finance and ADL score, change from baseline (112.5 mg bid, CAG Repeats <44 and BL TMS 1st 3 Qs, week 26): 0.57; Δ to placebo: UHDRS TFC Finance and ADL score, change from baseline (112.5 mg bid, TMS 1st 2Qs, week 26): 0.19; Δ to placebo: UHDRS TFC Finance and ADL score, change from baseline (112.5 mg bid, TMS 1st 2Qs, week 52): 0.44; Δ to placebo: UHDRS TFC Finance and ADL score, change from baseline (112.5 mg bid, TMS 1st 3Qs, week 26): 0.41; Δ to placebo: UHDRS TFC Finance and ADL score, change from baseline (112.5 mg bid, TMS 1st 3Qs, week 52): 0.09; Δ to placebo: UHDRS TFC Finance and ADL score, change from baseline (112.5 mg bid, TMS 1st Q, week 26): 1.1; Δ to placebo: UHDRS TFC Finance and ADL score, change from baseline (112.5 mg bid, TMS 1st Q, week 52): 0.74; Change from baseline in UHDRS TFC Finance ADL, Δ to placebo (112.5 mg bid, Week 26, ALL): 0.38; UHDRS TFC Finance ADL, change from baseline, Δ to placebo (112.5 mg bid, Week 26, BL TFC<7, p value 0.9361): 0.03; UHDRS TFC Finance ADL, change from baseline, Δ to placebo (112.5 mg bid, Week 26, BL TFC≥7, p value 0.0007): 0.62; Change from baseline in UHDRS TFC Finance ADL, Δ to placebo (112.5 mg bid, Week 26, Stage 1 BL TFC 11-13): 1.12; Change from baseline in UHDRS TFC Finance ADL, Δ to placebo (112.5 mg bid, Week 26, Stage 2 BL TFC 7-10 (FIG. 11c)): 0.46; Change from baseline in UHDRS TFC Finance ADL, Δ to placebo (112.5 mg bid, Week 26, Stage 2 BL TFC 7-10 (FIG. 11f)): 0.18; Change from baseline in UHDRS TFC Finance ADL, Δ to placebo (112.5 mg bid, Week 52, ALL): 0.1; UHDRS TFC Finance ADL, change from baseline, Δ to placebo (112.5 mg bid, Week 52, BL TFC<7, p value 0.5626): −0.22; UHDRS TFC Finance ADL, change from baseline, Δ to placebo (112.5 mg bid, Week 52, BL TFC≥7, p value 0.0841): 0.36; Change from baseline in UHDRS TFC Finance ADL, Δ to placebo (112.5 mg bid, Week 52, Stage 1 BL TFC 11-13): 0.64
